Source: US8895547B2, “Substituted phenyl-oxathiazine derivatives, method for producing them, drugs containing said compounds and the use thereof” (Sanofi, priority 2011, dated 2014)
pIC50: −log10 of the molar value.

biological target: T1, human 11β-HSD1 (Homo sapiens, UniProt P28845); assay: Enzymatic 11beta-HSD1 test (SPA-based detection); type: biochemical; settings: human 11β-HSD1 microsome fraction, [1,2-3H]-cortisone, NADPH, 37° C. 1 hour
T1 construct: host or cells: microsome fraction
Summary of the method: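 Human 11β-HSD1 microsomes (0.2 µg protein) converted [1,2-3H]-cortisone ([…]) for 1 h at 37 °C. The reaction buffer was HEPES/KCl/NaCl/MgCl2 with 0.25 mM NADPH, with compounds added in DMSO. The reaction was stopped with SPA beads, anti-cortisol monoclonal antibody and 0.01 mM SSR110887; after 1 h at room temperature, [3H]-cortisol was scintillation-counted.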

T1 sequence (P28845 whole entry): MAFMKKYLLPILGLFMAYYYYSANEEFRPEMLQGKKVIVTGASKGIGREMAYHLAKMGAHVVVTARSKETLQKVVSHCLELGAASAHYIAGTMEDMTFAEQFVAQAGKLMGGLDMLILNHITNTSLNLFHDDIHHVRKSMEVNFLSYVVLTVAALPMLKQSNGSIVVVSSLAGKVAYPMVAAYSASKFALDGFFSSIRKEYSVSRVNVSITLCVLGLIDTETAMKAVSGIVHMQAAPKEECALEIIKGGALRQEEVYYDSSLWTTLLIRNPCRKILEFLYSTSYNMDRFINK

pIC50 | Compound
7.85 | C[C@H](NC1=NS(=O)(=O)C(c2cccc(C(=O)NCc3ccccn3)c2)C(C)(C)O1)c1ccccc1F (stereo partly drawn) [Example 194, 3-{2-[(S)-1-(2-fluorophenyl)-ethylamino]-6,6-dimethyl-4,4-dioxo-5,6-dihydro-4H-4lambda6-[1,4,3]oxathiazin-5-yl}-N-pyridin-2-ylmethyl-benzamide]
7.40 | C[C@H](NC1=NS(=O)(=O)C(c2ccc(-c3ccc4nc(N)sc4c3)cc2)C(C)(C)O1)c1ccccc1F (stereo partly drawn) [Example 195, 6-(4-{2-[(S)-1-(2-fluorophenyl)-ethylamino]-6,6-dimethyl-4,4-dioxo-5,6-dihydro-4H-4lambda6-[1,4,3]oxathiazin-5-yl}-phenyl)-benzothiazol-2-ylamine]
8.15 | C[C@H](NC1=NS(=O)(=O)C(c2ccc(-c3cnc(N)nc3)cc2)C(C)(C)O1)c1ccccc1F (stereo partly drawn) [Example 196, {5-[4-(2-Amino-pyrimidin-5-yl)-phenyl]-6,6-dimethyl-4,4-dioxo-5,6-dihydro-4H-4lambda6-[1,4,3]oxathiazin-2-yl}-[(S)-1-(2-fluorophenyl)-ethyl]-amine]
